According to patent US8389680B2, “Treatment of Aspergillus infections with alpha thymosin peptides” (SciClone Pharmaceuticals, Inc., priority 2003, dated 2013):
“Also recorded” adds a separate entry of the source.

Key:
MyD88-dependent pathway = assay: Cytokine production by DCs of MyD88-deficient mice; type: cell-based
Description: (§1) Female, 8- to 10-weeks old, BALB/c and C57BL6 mice were from Charles River. NOD/SCID were from The Jackson. Breeding pairs of homozygous TLR2-, TLR9- and MyD88-deficient mice, raised on C57BL6 background, and of homozygous IFN-gamma- and IL-4-deficient mice, raised on BALB/c background, were bred under specific-pathogen free conditions. For phagocytosis, DCs were pre-exposed to 100 ng/ml TA1 for 60 minutes and subsequently incubated at 37° C. with Aspergillus conidia for an additional 60 minutes. The percentage of internalization was calculated and photographs were taken. In assessing functional maturation and cytokine determination, purified DCs were resuspended in Iscove's medium (with no serum but with polymixin B, to avoid non-specific activation by serum components and endotoxin) and pulsed with 100 ng/ml TA1 for 24 hours either alone or together with TLR ligands or unopsonized Aspergillus conidia. The levels of TNF-alpha, IL-10, IL-12 p70, IFN-alpha and IL-8 in culture supernatants were determined by Kit ELISAs. The detection limits (pg/ml) of the assays were <3 (human) and <32 (murine) for TNF-alpha, <12 (murine) and <5 (human) for IL-10, <16 (murine) and <3 (human) for IL-12 p70 and <25 (human) IL-8. For human IFN-alpha <3 ng/ml. For enumeration of cytokine-producing cells, an ELISPOT assay was used on purified CD4^+ T cells and DCs from lungs.

human TLR2 = target: T1, human TLR2 (Homo sapiens, UniProt O60603); assay: IL-8 production by TLR2-transfected HEK293 cells; type: cell-based
T1 construct: expressed in transfected cells; host or cells: HEK293
T1 sequence (O60603 21-784): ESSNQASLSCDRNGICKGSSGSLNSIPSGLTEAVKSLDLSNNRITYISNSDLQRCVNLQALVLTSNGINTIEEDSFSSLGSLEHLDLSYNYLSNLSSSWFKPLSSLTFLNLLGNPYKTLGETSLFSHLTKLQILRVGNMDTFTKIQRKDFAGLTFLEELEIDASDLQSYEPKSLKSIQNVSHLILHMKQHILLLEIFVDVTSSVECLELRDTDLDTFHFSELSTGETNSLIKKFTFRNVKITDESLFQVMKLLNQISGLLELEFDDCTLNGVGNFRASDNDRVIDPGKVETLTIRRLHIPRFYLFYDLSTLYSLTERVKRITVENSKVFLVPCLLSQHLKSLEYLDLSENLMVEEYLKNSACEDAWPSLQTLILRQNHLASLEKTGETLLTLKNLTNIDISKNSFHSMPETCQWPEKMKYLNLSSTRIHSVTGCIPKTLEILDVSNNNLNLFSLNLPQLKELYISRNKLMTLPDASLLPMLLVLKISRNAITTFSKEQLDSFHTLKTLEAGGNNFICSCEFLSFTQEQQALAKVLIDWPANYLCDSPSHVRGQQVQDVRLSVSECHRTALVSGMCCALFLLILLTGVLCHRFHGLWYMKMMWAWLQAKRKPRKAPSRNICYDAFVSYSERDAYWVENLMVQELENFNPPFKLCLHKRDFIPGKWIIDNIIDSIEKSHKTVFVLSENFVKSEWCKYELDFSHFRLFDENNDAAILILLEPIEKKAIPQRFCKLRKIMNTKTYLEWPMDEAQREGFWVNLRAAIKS
Description: The human embryonic kidney cell line HEK293, wild type or stably transfected with human TLR2, TLR9 and TLR4/CD1427 were cultured in low glucose Dulbecco's modified Eagle's medium supplemented with 10% FCS, HEPES ([…]), L-glutamine ([…]), and gentamycin (50 microgram/ml). Transfectants were additionally supplemented with puromycin (100 microgram/ml). For stimulation experiments, cells were cultured at a density of 3 to 5×10^5 cells/wells in 12-well tissue culture plates overnight. Cells were washed and stimulated with 100 ng/ml TA1 either alone or together with TLR ligands for 5 h before the assessment of IL-8 production in the supernatants.
The levels of TNF-alpha, IL-10, IL-12 p70, IFN-alpha and IL-8 in culture supernatants were determined by Kit ELISAs. The detection limits (pg/ml) of the assays were <3 (human) and <32 (murine) for TNF-alpha, <12 (murine) and <5 (human) for IL-10, <16 (murine) and <3 (human) for IL-12 p70 and <25 (human) IL-8. For human IFN-alpha <3 ng/ml. For enumeration of cytokine-producing cells, an ELISPOT assay was used on purified CD4^+ T cells and DCs from lungs.

A. fumigatus [1] = assay: Local fungal growth after Aspergillus infection of TLR2-, TLR9- or MyD88-deficient mice; type: in vivo
Excerpt: (§2) Female, 8- to 10-weeks old, BALB/c and C57BL6 mice were from Charles River. NOD/SCID were from The Jackson. Breeding pairs of homozygous TLR2-, TLR9- and MyD88-deficient mice, raised on C57BL6 background, and of homozygous IFN-gamma- and IL-4-deficient mice, raised on BALB/c background, were bred under specific-pathogen free conditions.
(§3) For infection with A. fumigatus, mice were intranasally injected for 3 consecutive days with a suspension of 2×10^7 conidia/20 microliter saline. For the quantification of fungal growth in the lungs, the chitin assay was used. The chitin content was expressed as micrograms of glucosamine per organ. The glucosamine content of lungs from uninfected mice was used as a negative control ranging between 0.80 and 2.25 microgram glucosamine/organ. For histological analysis, lungs were excised and immediately fixed in formalin. Sections (3 to 4 micron) of paraffin-embedded tissues were stained with the periodic acid-Schiff procedure. Thymosin alpha 1 (TA1) and the scrambled polypeptide are as purified sterile lyophilized acetylated polypeptides with endotoxin levels less than 0.03 pg/ml, by a standard limulus lysate assay. The sequences were as follows: Ac-[…]O (Thymosin alpha 1, SEQ ID NO.: 1) and Ac-[…]OH ([…]). Their lyophilized powders were reconstituted in sterile water.
(§4) The treatments were as follows; in BMT-mice, TA1, at different doses administered intraperitoneally, sthymosin alpha 1, 400 microgram/kg administered intraperitoneally or human recombinant G-CSF 250 microgram/kg administered intravenously, were given daily beginning the day of the BM infusion, in concomitance with the infection and continuing for an additional 3 days. Amphotericin B was given daily for 3 days in concomitance with the infection, at a dose of 4000 microgram/kg, administered intraperitoneally. This dose would cure IA in cyclophosphamide-treated mice. Cyclophosphamide, 150 mg/kg administered intraperitoneally, was given a day before the infection. […]

lung DCs = assay: Activation of murine lung DCs: phagocytosis of Aspergillus conidia, costimulatory antigen expression, cytokine production; type: cell-based
Description: as §1, with “For mature PDCs, immature DCs were cultured with the trimeric human CD40 ligand as above and 10 ng/ml IL-3. […] The expression of HLA Class II, CD80 and CD86 was high in both immature and mature DCs. Murine lung CD 11c^+ DCs (between 5” for “Female, 8-”, “7% positive for CD8alpha” for “10-weeks old, BALB/c”, “between 30 to 35% positive for Gr-1)” for “C57BL6 mice”, “isolated by magnetic cell sorting.” for “from Charles River. NOD/SCID were from The Jackson. Breeding pairs of homozygous TLR2-, TLR9- and MyD88-deficient mice, raised on C57BL6 background, and of homozygous IFN-gamma- and IL-4-deficient mice, raised on BALB/c background, were bred under specific-pathogen free conditions.”, “conidia. Cell surface phenotype was assessed by reacting samples with FITC- or PE-conjugated rat anti-mouse antibodies. Unrelated hisotype matched antibodies were used as control.” for “conidia.”

A. fumigatus [2] = assay: Therapeutic efficacy of TA1 in T cell-, IFN-gamma- or IL-4-deficient mice with aspergillosis; type: in vivo
Excerpt: as §2, §3, §4

[3] = combined exposure to Aspergillus conidia and TA1

**Q.** Which IL-10 production (MyD88-dependent pathway) does the source give for “Ac-Ser-Asp-Ala-Ala-Val-Asp-Thr-Ser-Ser-Glu-Ile-Thr-Thr-Lys-Asp-Leu-Lys-Glu-Lys-Lys-Glu-Val-Glu-Glu-Ala-Glu-Asn-O (Ac-SDAAVDTSSEITTKDLKEKKEVEEAEN-OH) [TA1, naturally occurring thymic peptide]” here?
**A.** dramatically ablated

**Q.** What about the “IL-12 p70 production” value (MyD88-dependent pathway; TA1 and conidia) of the same substance?
**A.** dramatically ablated

**Q.** And the “production of IL-8” value (human TLR2; TA1 alone)?
**A.** did not stimulate

**Q.** And the “production of IL-8” value (human TLR2; in response to zymosan)?
**A.** potentiated; also recorded: slightly increased

**Q.** And the fungal growth (A. fumigatus [1]; MyD88-deficient mice)?
**A.** not impaired

**Q.** And the fungal growth (A. fumigatus [1]; TLR2-deficient mice)?
**A.** similarly impaired

**Q.** What about the fungal growth (A. fumigatus [1]; TLR9-deficient mice) of the same substance?
**A.** similarly impaired

**Q.** What about the “activation of lung DCs for phagocytosis of unopsonized conidia, costimulatory antigen expression and cytokine production” value (lung DCs; 100 ng/ml) of the same substance?
**A.** activates

**Q.** And the “expression of MHC Class II antigens, CD86 and CD40 molecules” value (lung DCs; [3])?
**A.** remarkably increased

**Q.** And the “frequency of IL-12 p70-producing DCs” value (lung DCs; [3])?
**A.** remarkably increased

**Q.** What about the “frequency of IL-12 p70-producing DCs” value (lung DCs; thymosin alone) of the same substance?
**A.** also increased

**Q.** And the therapeutic efficacy (A. fumigatus [2]; IL-4-deficient mice (increased Th1 cells))?
**A.** improved therapeutic efficacy

**Q.** What about the therapeutic efficacy (A. fumigatus [2]; mice devoid of IFN-gamma-producing Th1 cells) of the same substance?
**A.** not as great

**Q.** And the therapeutic efficacy (A. fumigatus [2]; mice devoid of T cells)?
**A.** not as great
